Here are results for 78 compounds from the METLIN SMRT retention time set (Domingo-Almenara et al. 2019).

This series can be described thus: gradient 5% acetonitrile 3 min, to 50% in 2 min, to 85% in 15 min, held 3 min, 100 µL/min. Particulars: column: Zorbax Extend-C18 2.1 x 50 mm; eluents: water / acetonitrile, 0.1% formic acid. An outline of the steps:
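Using water and acetonitrile that each contained 0.1% formic acid, mixtures of ~100 pure standards were separated at 100 μL/min on a Zorbax Extend-C18 column (2.1 × 50 mm, 1.8 μm). The HPLC fed a quadrupole time-of-flight mass spectrometer working in positive and negative ionization mode, with dead and dwell volumes of 40 μL and 900 μL. Data were acquired over 3 months. Retention time was read from computationally picked adduct peaks after manual inspection of each.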
The compound `CCCS(=O)(=O)Nc1ccc(F)c(C(=O)c2c[nH]c3ncc(Cl)cc23)c1F` came in with an RP-LC retention time of 878 s.

As for `CC1CCN(C(=O)c2cc3c(s2)CCC(C(=O)N2CCOCC2)C3)CC1` (stereo not drawn), the RP-LC retention time turned out to be 765 s.

In the case of `COc1ccc(NC(=O)c2cnc3c(c2)c(=O)n(C)c(=O)n3-c2ccc(C)cc2)c(OC)c1`, the RP-LC retention time was determined as 913 s.

`CC(C)c1noc(-c2ccn3c(CC(=O)N4CCCCC4)nnc3c2)n1`: the RP-LC retention time was 721 s.

In turn, `COCCN1C(=O)c2ccccc2C(C(=O)NC2CCCC2)C1c1cccs1` (stereo not drawn) registered an RP-LC retention time of 843 s.

`COCCCNC(=O)C1CCN(c2ncccc2S(=O)(=O)N2CCOCC2)CC1` came in with an RP-LC retention time of 613 s.

Compound `COc1ccc(NC(=O)c2cnc(N3CCN(C(=O)c4ccco4)CC3)nc2N)cc1` registered an RP-LC retention time of 593 s.

`CCn1cc(C)c(C(=O)O)c1CC(=O)Nc1ccc(Cl)cc1` came in with an RP-LC retention time of 1010 s.

For `CC(C)CCNC(=O)c1cc2n(n1)CC(C)(C(=O)NCc1ccc(F)cc1)N(C)C2=O` (stereo not drawn), the RP-LC retention time is 770 s.

Turning to `CCOc1ccc(CNC(=O)C2CCCN(c3ccc(=O)n(-c4ccc(CC)cc4)n3)C2)cc1` (stereo not drawn), the RP-LC retention time stood at 940 s.

Compound `O=C(NCc1nc(-c2ccc(NS(=O)(=O)c3cccs3)cc2)no1)c1ccccc1` yielded an RP-LC retention time of 848 s.

`COc1ccccc1NC(=O)N1CCc2[nH]cnc2C1c1ccncc1` (stereo not drawn) returned an RP-LC retention time of 540 s.

Compound `Cc1cc(C(=O)Nc2ccc3nc(N4CCN(C)CC4)cc(C)c3c2)ccc1[N+](=O)[O-]` displayed an RP-LC retention time of 595 s.

`COc1ccc(C2C(C(=O)Nc3ccc4c(c3)OCO4)c3cc(OC)c(OC)cc3C(=O)N2C)cc1` (stereo not drawn) came in with an RP-LC retention time of 798 s.

In the case of `O=C(C1CCN(c2cncnc2N2CCCC2)CC1)N1CCN(c2ccccn2)CC1`, the RP-LC retention time was 552 s.

`CC1(C(=O)NCc2ccccc2)CN(S(=O)(=O)c2ccccc2)CC(=O)N1C1CCCCCC1` (stereo not drawn) came in with an RP-LC retention time of 1060 s.

`CN(CC1CCOCC1)C(=O)Cc1ccccc1Cl` displayed an RP-LC retention time of 771 s.

As to `COc1cc(OC)cc(N2C(=O)CC(c3ccc(OC)c(OC)c3)CC2=O)c1`, the RP-LC retention time was found to be 833 s.

Take `CC(C)n1c(-c2cccc(C(=O)NC3CCCC3)c2)nc2cccnc21`: the RP-LC retention time stood at 796 s.

For the compound `Cc1cccc(NC(=O)C2CCCN(S(=O)(=O)c3cn(C(C)C)cn3)C2)c1` (stereo not drawn), the RP-LC retention time was 803 s.

Take `COc1ccc(NC(=O)Nc2cccc(-c3ccc(N4CCOCC4)nn3)c2)cc1F`: the RP-LC retention time was found to be 675 s.

For `CCOC(=O)C1CCN(C(=O)C2CCCN(c3ncnc4c3nc3n4CCCCC3)C2)CC1` (stereo not drawn), the RP-LC retention time came out at 726 s.

On to `O=C1CC(c2noc(-c3ccccc3Cl)n2)CN1c1ccc(F)cc1` (stereo not drawn), for which the RP-LC retention time came to 964 s.

In turn, `CCOC(=O)N1CCC(NC(=O)C2CCCN(c3ncnc4c3oc3ccccc34)C2)CC1` (stereo not drawn) returned an RP-LC retention time of 679 s.

`CC1CCCCN1CCNC(=O)c1ccc2c(c1)nc1n2CCN(Cc2ccccc2)C1=O` (stereo not drawn) returned an RP-LC retention time of 601 s.

Consider `CC1CCc2onc(C(=O)N3CCN(c4ccccn4)CC3)c2C1` (stereo not drawn), for which the RP-LC retention time is 650 s.

`CC(C)n1c(N2CCN(C(=O)c3ccnn3C)CC2)cc(=O)n(C(C)C)c1=O`: the RP-LC retention time is 725 s.

For `O=C(CCCn1c(=O)c2cccn2c2ccccc21)N1CCN(c2ccccn2)CC1`, the RP-LC retention time was 625 s.

The compound `COCCn1c(SCc2nc(-c3ccccc3C)no2)nc2cc3c(cc2c1=O)OCO3` registered an RP-LC retention time of 1120 s.

In turn, `Cc1cc(C)cc(OCC(=O)Nc2nc(-c3ccccc3)cs2)c1` returned an RP-LC retention time of 1210 s.

`CCOc1ccc(C(C)NC(=O)C2CCN(c3cncnc3N3CCOCC3)CC2)cc1` (stereo not drawn): the RP-LC retention time came to 649 s.

For the compound `COCCc1nnc(NC(=O)c2ccc3c(c2)CCCC3)o1`, the RP-LC retention time came to 702 s.

For the compound `COCCC1CCN(C(=O)C2CCN(C(C)=O)CC2)CC1`, the RP-LC retention time was 606 s.

With `CCc1nc(-c2csc(S(=O)(=O)N3CCCC(C(=O)NCc4ccccc4C)C3)c2)no1` (stereo not drawn), the RP-LC retention time was 1010 s.

The compound `Cc1noc(C)c1S(=O)(=O)Nc1cccc(-c2nc(-c3cccc(Br)c3)co2)c1` showed an RP-LC retention time of 1230 s.

In turn, `Cc1ccc(Cl)cc1NC(=O)Cn1nc2c3cc(Cl)ccc3ncn2c1=O` displayed an RP-LC retention time of 770 s.

Take `CC(=O)Nc1ccc(NC(=O)C2CCN(S(=O)(=O)c3c(C)nn(-c4ccccc4)c3C)CC2)cc1`: the RP-LC retention time worked out at 754 s.

As to `COc1ccc(-c2nc3nc(C)cc(C)n3c2Nc2c(C)cccc2C)cc1`, the RP-LC retention time was determined as 766 s.

The compound `Cc1ccc(NC(=O)C2CCCN(S(=O)(=O)c3c[nH]c(C(=O)N4CCCC4)c3)C2)cc1F` (stereo not drawn) showed an RP-LC retention time of 859 s.

In the case of `CSc1ccc(-c2noc(CN3C(=O)COc4ccc(C(C)(C)C)cc43)n2)cc1`, the RP-LC retention time was 1300 s.

`O=C(NCC(c1cccnc1)c1c[nH]c2ccccc12)Nc1ccc(Br)cc1` (stereo not drawn) gave an RP-LC retention time of 724 s.

For the compound `COc1ccc(Cl)c2c(=O)c3c([nH]c12)CCN(CC(=O)Nc1ccccc1)C3`, the RP-LC retention time amounted to 617 s.

`Cc1[nH]c(-c2ccccc2)cc1C(=O)NC1CCCC1` displayed an RP-LC retention time of 845 s.

The compound `COc1ccc(OC)c(CNC(=O)c2c(C)sc3ccn(C)c(=O)c23)c1` came in with an RP-LC retention time of 688 s.

Compound `O=C(Cn1cccc1-c1nnc(-c2ccccc2)o1)N1CCN(Cc2ccc3c(c2)OCO3)CC1` showed an RP-LC retention time of 709 s.

`Cc1ccc(Nc2c(-c3cccc(Br)c3)nc3ccccn23)cc1` registered an RP-LC retention time of 778 s.

Turning to `COc1ccc(NC(=O)c2cc3c(s2)CN(C2CCCC2)C3)c(OC)c1`, the RP-LC retention time stood at 616 s.

Take `COc1c(C(=O)NC(C)C)sc2cccc(F)c12`: the RP-LC retention time amounted to 968 s.

For `CNC(=O)c1cc2cccc3c2n1CC(C)S3` (stereo not drawn), the RP-LC retention time was 853 s.

Turning to `COc1ccc(-n2c(=O)n(C)c(=O)c3cc(C(=O)Nc4cc(F)ccc4C)cnc32)cc1`, the RP-LC retention time was found to be 893 s.

Regarding `CC(C)CNC(=O)C1CCCN(c2cnc3nccnc3c2)C1` (stereo not drawn), the RP-LC retention time is 658 s.

Compound `Cc1ccc2nc(NC(=O)C3CC(=O)N(c4n[nH]c5cccc(F)c45)C3)sc2c1` (stereo not drawn) registered an RP-LC retention time of 812 s.

`CCn1cc(C)c(C(=O)O)c1CC(=O)N1CCc2ccccc21` had an RP-LC retention time of 815 s.

In the case of `O=C(Cn1c(=O)c2cccn2c2ccc(F)cc21)N1CCN(C(=O)c2ccco2)CC1`, the RP-LC retention time was determined as 706 s.

In the case of `Cc1ccc(NC(=O)C2CCN(S(=O)(=O)c3cn(C(C)C)cn3)CC2)c(Br)c1`, the RP-LC retention time came to 838 s.

In turn, `Cc1ccc(-n2c(=O)c3sccc3n(Cc3nc(-c4ccc(Br)cc4)no3)c2=O)cc1` showed an RP-LC retention time of 1110 s.

As for `O=C(Cc1ccc(-c2ccc(OCCN3CCOCC3)cc2)cn1)NCc1ccccc1`, the RP-LC retention time turned out to be 621 s.

For the compound `CCCNc1cc(N2CCC(CCC(=O)NCc3cc(F)cc(F)c3)CC2)ncn1`, the RP-LC retention time is 704 s.

Turning to `O=C(Nc1ccccc1NC(=O)c1ccc(Br)o1)c1ccsc1`, the RP-LC retention time worked out at 806 s.

For the compound `O=C(O)c1cc(I)ccc1NC(=O)[C@H](Cc1ccccc1)NCc1ccccc1`, the RP-LC retention time amounted to 863 s.

For `COc1ccc(CN2CCN(C(=O)CCC(=O)N3CCCn4nc(C)cc43)CC2)c(OC)c1OC`, the RP-LC retention time came out at 595 s.

`Cc1nn(CC(=O)NCc2cccnc2)c(=O)c2nc(-c3ccccc3)sc12` returned an RP-LC retention time of 614 s.

On to `Cn1cc(C(=O)NCCC2=CCCCC2)c2nn(-c3ccccc3)c(=O)c-2c1`, for which the RP-LC retention time came to 991 s.

In turn, `Cc1ccc(-c2ccc(N3CCN(c4ccccn4)CC3)nn2)cc1S(=O)(=O)N1CCCC1` showed an RP-LC retention time of 656 s.

With `CC(=O)N1CCC(C(=O)Nc2ccc(OCc3nnc(-c4ccc(Cl)cc4)o3)cc2)CC1`, the RP-LC retention time stood at 758 s.

The compound `CC(C)C(NC(=O)CCc1ccccc1)C(=O)Nc1nc2ccccc2[nH]1` (stereo not drawn) had an RP-LC retention time of 718 s.

`COc1ccc(OC)c(-c2csc(Nc3ccc(Br)cn3)n2)c1`: the RP-LC retention time was found to be 1190 s.

For `Cc1nn(-c2ccccc2)c(C)c1S(=O)(=O)N1CCC(C(=O)Nc2ccc(Cl)cc2)CC1`, the RP-LC retention time was 726 s.

Compound `CCc1noc2nc(C)nc(N3CCCC(C(=O)NC4CC4)C3)c12` (stereo not drawn) showed an RP-LC retention time of 711 s.

Regarding `Cc1ccc(NC(=O)C2CCN(C(=O)c3ncn4c3COC(c3ccc(F)cc3)C4)CC2)cc1F` (stereo not drawn), the RP-LC retention time is 854 s.

In turn, `C=CCN1CCN(C(=O)c2ccc3c(c2)Sc2ncccc2C(=O)N3CC)CC1` had an RP-LC retention time of 564 s.

`CCOc1ccc(-c2csc(Nc3cc(C)ccn3)n2)cc1`: the RP-LC retention time was 833 s.

`Cc1cccc(NC(=O)Cn2cnc3c(sc4nc(-c5ccccc5)ccc43)c2=O)c1C` displayed an RP-LC retention time of 1020 s.

Compound `CCc1nc(N)n(CC(=O)Nc2ccc(Cl)cc2)c(=O)c1C` registered an RP-LC retention time of 661 s.

For the compound `CCOC(=O)c1[nH]c(C)c(CCC(=O)N2CCCC(C(=O)NC3CCCCCC3)C2)c1C` (stereo not drawn), the RP-LC retention time is 868 s.

With `CCN1CCN(C(=O)CC2Sc3ncccc3N(CC)C2=O)CC1` (stereo not drawn), the RP-LC retention time was 576 s.

Take `Cn1ccc(C(=O)Nc2ccc(Cl)cc2C(=O)c2ccccc2)n1`: the RP-LC retention time is 1010 s.

In turn, `O=c1[nH]c2ccc(S(=O)(=O)N3CCN(c4nc5ccccc5[nH]4)CC3)cc2o1` had an RP-LC retention time of 522 s.
